Experiments:
[1] = target: T1, MMP-13 (Homo sapiens, UniProt P45452); assay: In vitro MMP inhibition, Ki determination (fluorogenic substrate II); type: biochemical; details: value not in parenthesis; read-out: MMP-13 Ki
T1 construct: made in house; host or cells: baculovirus / insect cells
How it was run: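 Ki determined with human recombinant MMP-13, baculovirus-expressed as proenzyme and activated with APMA. Fluorogenic MCA/Dpa substrate II at 4 μM (at or below Km) with low enzyme in Tris buffer pH 7.5 with CaCl2. Incubation was 1 h at room temperature, with fluorescence read at 330/420 nm.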

[2] = target: T2, MMP-14 (Homo sapiens, UniProt P50281); assay: as above; type: biochemical; details: value not in parenthesis; read-out: MMP-14 Ki
T2 construct: The catalytic domain enzyme was expressed in E. coli inclusion bodies, solubilized in urea; made in house
How it was run: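 E. coli-expressed, refolded MMP-14 catalytic domain, activated with APMA or trypsin, in 100 mM Tris-HCl pH 7.5, 100 mM NaCl, 10 mM CaCl2, 0.05% Brij-type detergent. Apparent Ki by Morrison-equation regression of velocity vs inhibitor and enzyme concentration.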

| Structure (SMILES) | Ki [1] [nM] | Ki [2] [nM] |
| --- | --- | --- |
| CCCCOc1ccc(N2CCN(S(=O)(=O)C3(C(=O)NO)CCN(C(=O)N4CCN(C)CC4)CC3)CC2)cc1 [Example 230] | 0.27 | 2510 |
| CCCCOc1ccc(N2CCN(S(=O)(=O)C3(C(=O)NO)CCN(C(=O)N4CCCC4)CC3)CC2)cc1 [Example 231] | 0.17 | 1530 |
| CCCCOc1ccc(N2CCN(S(=O)(=O)C3(C(=O)NO)CCSCC3)CC2)cc1 [Example 232] | 0.56 | 3510 |
| CCCCOc1ccc(N2CCN(S(=O)(=O)C3(C(=O)NO)CCN(CCN4CCOCC4)CC3)CC2)cc1 [Example 233] | 0.26 | 3080 |
| CCOCCSc1ccc(N2CCN(S(=O)(=O)C3(C(=O)NO)CCOCC3)CC2)cc1 [Example 234] | 1.61 | 2880 |
| CCCCOc1ccc(N2CCN(S(=O)(=O)C3(C(=O)NO)CCN(CCN(CC)CC)CC3)CC2)cc1 [Example 235] | 0.3 | 3960 |
| CCCCCc1ccc(N2CCN(S(=O)(=O)C3(C(=O)NO)CCN(S(=O)(=O)N(C)C)CC3)CC2)cc1 [Example 236] | 1.47 | > 10000 |
| CCCCCc1ccc(N2CCN(S(=O)(=O)C3(C(=O)NO)CCN(S(C)(=O)=O)CC3)CC2)cc1 [Example 237] | 1.69 | 7120 |
| CCCCOc1ccc(N2CCN(S(=O)(=O)C3(C(=O)NO)CCN(CCCC(F)(F)F)CC3)CC2)cc1 [Example 238] | 0.53 | 6040 |
| CCCCCc1ccc(N2CCN(S(=O)(=O)C3(C(=O)NO)CCN(C(C)=O)CC3)CC2)cc1 [Example 239] | 0.37 | 1050 |
| CCCCOc1ccc(N2CCN(S(=O)(=O)C3(C(=O)NO)CCN(C(=O)NC(C)(C)C)CC3)CC2)cc1 [Example 240] | 0.327 | 3960 |
| CCCCOc1ccc(N2CCN(S(=O)(=O)C3(C(=O)NO)CCN(c4ccc(N(C)C)cc4)CC3)CC2)cc1 [Example 241] | 1.06 | > 10000 |
| CCCCOc1ccc(N2CCN(S(=O)(=O)C3(C(=O)NO)CCN(C(=O)N(CC)CC)CC3)CC2)cc1 [Example 242] | 0.331 | 2390 |
| CCCCOc1ccc(N2CCN(S(=O)(=O)C3(C(=O)NO)CCN(C(=O)N4CCCCC4)CC3)CC2)cc1 [Example 243] | 0.24 | 2050 |
| CCCCOc1ccc(N2CCN(S(=O)(=O)C3(C(=O)NO)CCN(C(=O)N(C(C)C)C(C)C)CC3)CC2)cc1 [Example 244] | 0.57 | 5310 |
| CCCCOc1ccc(N2CCN(S(=O)(=O)C3(C(=O)NO)CCN(Cc4nccn4C)CC3)CC2)cc1 [Example 245] | 0.177 | 2810 |
| CCCCOc1ccc(N2CCN(S(=O)(=O)C3(C(=O)NO)CCN(Cc4ccc(C)o4)CC3)CC2)cc1 [Example 246] | 0.396 | 5950 |
| CCCCOc1ccc(N2CCN(S(=O)(=O)C3(C(=O)NO)CCN(Cc4ncc[nH]4)CC3)CC2)cc1 [Example 247] | 0.166 | 1980 |
| CCCCOc1ccc(N2CCN(S(=O)(=O)C3(C(=O)NO)CCN(c4ccc(OC)cc4)CC3)CC2)cc1 [Example 249] | 2.46 | > 10000 |

— patent US20050209278A1, “Piperidinyl- and piperazinyl-sulfonylmethyl hydroxamic acids and their use as protease inhibitors” (priority 2002, published 2005)
